Measured values from article PMC5762309 (Oncotarget, 2017).
Where two headings read alike, the source gives them in different places.

What was measured:
[1] = tested on: EGFR(L747-T751del,Sins); assay: KINOMEScan; format: binding; design: dose or concentration left out as unconfirmed
[2] = tested on: 468 kinases/mutants; assay: KINOMEScan kinome-wide selectivity S score; format: binding; conditions: 1 μM
From the text: Then we used the DiscoverX’s KINOMEScan platform to further examine CHMFL-KIT-031’s kinome-wide selectivity profile. […] Besides the strong binding to V559D, it also bound strongly to KIT wt, L576P and A829P.

[3] = biological target: T1, DLK (Homo sapiens, UniProt Q12852); assay: KINOMEScan; format: binding; design: dose or concentration left out as unconfirmed
T1 construct: purchased DiscoverX KINOMEscan

[4] = biological target: T2, SNARK (Homo sapiens, UniProt Q9H093); assay: KINOMEScan; format: binding; design: dose or concentration left out as unconfirmed
T2 construct: purchased DiscoverX KINOMEscan

[5] = biological target: T3, JNK2 (Homo sapiens, UniProt P45984); assay: KINOMEScan; format: binding; design: dose or concentration left out as unconfirmed
T3 construct: purchased DiscoverX KINOMEscan

[6] = tested on: AKT, S6, ERK, p70S6K and STAT3 phosphorylation; assay: Signaling pathway study in BaF3-TEL-KIT-V559D cells; format: cell-based; conditions: KIT-V559D transformed stable BaF3 cells, Western blot
[7] = biological target: T4, MST1 (Homo sapiens, UniProt Q13043); assay: KINOMEScan; format: binding; design: dose or concentration left out as unconfirmed
T4 construct: purchased DiscoverX KINOMEscan

[8] = biological target: T5, EGFR(S752-I759del) (Homo sapiens, UniProt P00533, DEL752-759); assay: KINOMEScan; format: binding; design: dose or concentration left out as unconfirmed
T5 construct: purchased DiscoverX KINOMEscan

[9] = biological target: KIT V559D/V654A (Homo sapiens, UniProt P10721, V559D/V654A); assay: KIT auto-phosphorylation in transformed BaF3 cells; conditions: 2h
[10] = biological target: T6, EPHB2 (Homo sapiens, UniProt P29323); assay: KINOMEScan; format: binding; design: dose or concentration left out as unconfirmed
T6 construct: purchased DiscoverX KINOMEscan

[11] = biological target: T7, EGFR(L747-S752del, P753S) (Homo sapiens, UniProt P00533, DEL747-752/P753S); assay: KINOMEScan; format: binding; design: dose or concentration left out as unconfirmed
T7 construct: purchased DiscoverX KINOMEscan

[12] = biological target: T8, CIT (Homo sapiens, UniProt O14578); assay: KINOMEScan; format: binding; design: dose or concentration left out as unconfirmed
T8 construct: purchased DiscoverX KINOMEscan

[13] = biological target: KIT wt (Homo sapiens, UniProt P10721); assay: KIT auto-phosphorylation in transformed BaF3 cells; format: cell-based; conditions: 2h
[14] = biological target: KIT D816V (Homo sapiens, UniProt P10721, D816V); assay: KIT auto-phosphorylation in transformed BaF3 cells; conditions: 2h
[15] = biological target: T9, IRAK4 (Homo sapiens, UniProt Q9NWZ3); assay: KINOMEScan; format: binding; design: dose or concentration left out as unconfirmed
T9 construct: purchased DiscoverX KINOMEscan

[16] = biological target: T10, QSK (Homo sapiens, UniProt Q9Y2K2); assay: KINOMEScan; format: binding; design: dose or concentration left out as unconfirmed
T10 construct: purchased DiscoverX KINOMEscan

[17] = biological target: KIT A829P (Homo sapiens, UniProt P10721, A829P); assay: KIT auto-phosphorylation in transformed BaF3 cells
[18] = biological target: T11, EGFR(G719C) (Homo sapiens, UniProt P00533, G719C); assay: KINOMEScan; format: binding; design: dose or concentration left out as unconfirmed
T11 construct: purchased DiscoverX KINOMEscan

[19] = biological target: T12, TYK2(JH1domain-catalytic) (Homo sapiens, UniProt P29597); assay: KINOMEScan; format: binding; design: dose or concentration left out as unconfirmed
T12 construct: TYK2(JH1domain-catalytic); purchased DiscoverX KINOMEscan

[20] = biological target: T13, JAK1(JH1domain-catalytic) (Homo sapiens, UniProt P23458); assay: KINOMEScan; format: binding; design: dose or concentration left out as unconfirmed
T13 construct: JAK1(JH1domain-catalytic); purchased DiscoverX KINOMEscan

[21] = biological target: T14, JNK3 (Homo sapiens, UniProt P53779); assay: KINOMEScan; format: binding; design: dose or concentration left out as unconfirmed
T14 construct: purchased DiscoverX KINOMEscan

[22] = biological target: T15, MKK7 (Homo sapiens, UniProt O14733); assay: KINOMEScan; format: binding; design: dose or concentration left out as unconfirmed
T15 construct: purchased DiscoverX KINOMEscan

[23] = tested on: FLT3(ITD,F691L); assay: KINOMEScan; format: binding; design: dose or concentration left out as unconfirmed
[24] = biological target: T16, BMPR2 (Homo sapiens, UniProt Q13873); assay: KINOMEScan; format: binding; design: dose or concentration left out as unconfirmed
T16 construct: purchased DiscoverX KINOMEscan

[25] = biological target: T17, JAK2(JH1domain-catalytic) (Homo sapiens, UniProt O60674); assay: KINOMEScan; format: binding; design: dose or concentration left out as unconfirmed
T17 construct: JAK2(JH1domain-catalytic); purchased DiscoverX KINOMEscan

[26] = EC50 pY703 auto-phosphorylation
[27] = EC50 pY719 auto-phosphorylation
[28] = EC50 pY823 auto-phosphorylation

Chain of KIT D816V (P10721 26-976 D816V): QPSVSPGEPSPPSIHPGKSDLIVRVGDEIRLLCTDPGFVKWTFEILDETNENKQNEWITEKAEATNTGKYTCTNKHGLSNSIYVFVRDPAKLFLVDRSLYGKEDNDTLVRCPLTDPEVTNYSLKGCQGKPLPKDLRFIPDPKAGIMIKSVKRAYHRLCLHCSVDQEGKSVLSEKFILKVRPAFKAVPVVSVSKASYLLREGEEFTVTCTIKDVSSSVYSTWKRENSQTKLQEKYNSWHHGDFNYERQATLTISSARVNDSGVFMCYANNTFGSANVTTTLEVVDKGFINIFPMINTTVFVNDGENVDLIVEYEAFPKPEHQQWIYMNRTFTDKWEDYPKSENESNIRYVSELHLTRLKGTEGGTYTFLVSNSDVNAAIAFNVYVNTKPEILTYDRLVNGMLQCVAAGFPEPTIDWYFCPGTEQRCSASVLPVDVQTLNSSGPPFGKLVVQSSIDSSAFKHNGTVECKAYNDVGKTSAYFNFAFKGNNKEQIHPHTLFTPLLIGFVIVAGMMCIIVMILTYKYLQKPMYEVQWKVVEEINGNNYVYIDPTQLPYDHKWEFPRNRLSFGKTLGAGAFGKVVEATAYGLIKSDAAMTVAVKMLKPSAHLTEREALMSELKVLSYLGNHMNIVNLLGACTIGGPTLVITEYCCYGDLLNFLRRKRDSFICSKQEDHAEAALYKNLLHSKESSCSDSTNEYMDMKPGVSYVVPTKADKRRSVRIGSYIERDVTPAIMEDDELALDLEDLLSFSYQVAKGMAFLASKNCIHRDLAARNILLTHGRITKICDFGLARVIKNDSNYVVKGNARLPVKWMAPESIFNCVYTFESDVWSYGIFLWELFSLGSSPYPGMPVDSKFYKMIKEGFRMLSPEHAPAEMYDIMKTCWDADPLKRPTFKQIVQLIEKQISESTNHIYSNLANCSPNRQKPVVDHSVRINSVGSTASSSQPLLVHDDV
Chain of KIT A829P (P10721 26-976 A829P): as the sequence (P10721 26-976 D816V) above, with V791D, A804P counted along it
Chain of KIT V559D/V654A (P10721 546-976 V559D/V654A): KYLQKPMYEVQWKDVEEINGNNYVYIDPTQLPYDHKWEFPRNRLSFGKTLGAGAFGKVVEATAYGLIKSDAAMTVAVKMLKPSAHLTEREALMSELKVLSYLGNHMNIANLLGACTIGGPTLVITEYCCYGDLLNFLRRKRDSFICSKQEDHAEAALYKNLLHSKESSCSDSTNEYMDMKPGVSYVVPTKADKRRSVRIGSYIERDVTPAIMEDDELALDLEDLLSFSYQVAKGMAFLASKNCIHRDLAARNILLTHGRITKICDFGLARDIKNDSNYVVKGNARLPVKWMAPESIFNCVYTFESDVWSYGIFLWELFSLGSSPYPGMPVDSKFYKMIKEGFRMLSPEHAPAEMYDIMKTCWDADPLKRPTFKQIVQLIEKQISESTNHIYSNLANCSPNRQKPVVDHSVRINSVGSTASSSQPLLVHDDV
Chain of KIT wt (P10721 546-937 limits assumed): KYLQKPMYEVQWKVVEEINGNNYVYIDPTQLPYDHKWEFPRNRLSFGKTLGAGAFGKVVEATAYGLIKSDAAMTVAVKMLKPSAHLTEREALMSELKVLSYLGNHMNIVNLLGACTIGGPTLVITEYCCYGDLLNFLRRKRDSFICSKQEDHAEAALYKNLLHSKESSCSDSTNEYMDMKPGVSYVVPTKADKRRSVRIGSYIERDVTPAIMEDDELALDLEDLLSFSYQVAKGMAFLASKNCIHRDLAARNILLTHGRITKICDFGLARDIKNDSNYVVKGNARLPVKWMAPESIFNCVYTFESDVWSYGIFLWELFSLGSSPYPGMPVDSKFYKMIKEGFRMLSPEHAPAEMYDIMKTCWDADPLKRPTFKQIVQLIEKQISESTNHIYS
T10 sequence (Q9Y2K2 whole entry): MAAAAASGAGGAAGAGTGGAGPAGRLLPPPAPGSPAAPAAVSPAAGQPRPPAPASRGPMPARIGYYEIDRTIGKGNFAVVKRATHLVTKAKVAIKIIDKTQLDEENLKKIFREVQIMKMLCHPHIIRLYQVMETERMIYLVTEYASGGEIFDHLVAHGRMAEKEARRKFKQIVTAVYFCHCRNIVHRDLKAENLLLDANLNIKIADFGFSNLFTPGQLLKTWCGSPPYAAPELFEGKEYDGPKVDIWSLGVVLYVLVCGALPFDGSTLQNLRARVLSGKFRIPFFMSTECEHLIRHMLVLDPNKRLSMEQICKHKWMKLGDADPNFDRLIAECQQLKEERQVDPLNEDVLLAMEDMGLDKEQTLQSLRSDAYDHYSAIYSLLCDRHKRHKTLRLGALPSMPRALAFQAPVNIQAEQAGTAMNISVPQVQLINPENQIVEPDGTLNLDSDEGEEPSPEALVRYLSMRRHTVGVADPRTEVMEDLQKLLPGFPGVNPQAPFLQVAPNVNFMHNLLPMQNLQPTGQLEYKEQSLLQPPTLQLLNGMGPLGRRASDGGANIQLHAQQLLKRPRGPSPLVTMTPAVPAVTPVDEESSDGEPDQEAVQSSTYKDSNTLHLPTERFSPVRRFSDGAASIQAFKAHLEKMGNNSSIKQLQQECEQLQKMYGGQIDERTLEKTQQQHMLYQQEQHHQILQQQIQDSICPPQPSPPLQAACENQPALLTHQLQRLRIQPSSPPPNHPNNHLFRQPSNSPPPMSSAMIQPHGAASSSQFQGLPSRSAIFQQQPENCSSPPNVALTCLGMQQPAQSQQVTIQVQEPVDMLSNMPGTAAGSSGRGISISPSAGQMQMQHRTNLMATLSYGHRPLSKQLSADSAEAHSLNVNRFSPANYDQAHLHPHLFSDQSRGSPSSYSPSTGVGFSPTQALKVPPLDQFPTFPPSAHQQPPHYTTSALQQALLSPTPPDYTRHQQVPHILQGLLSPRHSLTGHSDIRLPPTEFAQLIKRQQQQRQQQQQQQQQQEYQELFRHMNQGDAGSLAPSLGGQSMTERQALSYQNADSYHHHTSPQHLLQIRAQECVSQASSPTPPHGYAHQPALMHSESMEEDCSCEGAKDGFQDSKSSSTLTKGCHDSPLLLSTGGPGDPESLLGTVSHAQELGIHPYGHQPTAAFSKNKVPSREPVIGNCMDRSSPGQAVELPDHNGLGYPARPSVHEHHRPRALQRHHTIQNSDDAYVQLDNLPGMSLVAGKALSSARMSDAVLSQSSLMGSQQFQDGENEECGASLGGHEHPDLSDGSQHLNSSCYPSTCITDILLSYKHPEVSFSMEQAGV
T16 sequence (Q13873 27-1038): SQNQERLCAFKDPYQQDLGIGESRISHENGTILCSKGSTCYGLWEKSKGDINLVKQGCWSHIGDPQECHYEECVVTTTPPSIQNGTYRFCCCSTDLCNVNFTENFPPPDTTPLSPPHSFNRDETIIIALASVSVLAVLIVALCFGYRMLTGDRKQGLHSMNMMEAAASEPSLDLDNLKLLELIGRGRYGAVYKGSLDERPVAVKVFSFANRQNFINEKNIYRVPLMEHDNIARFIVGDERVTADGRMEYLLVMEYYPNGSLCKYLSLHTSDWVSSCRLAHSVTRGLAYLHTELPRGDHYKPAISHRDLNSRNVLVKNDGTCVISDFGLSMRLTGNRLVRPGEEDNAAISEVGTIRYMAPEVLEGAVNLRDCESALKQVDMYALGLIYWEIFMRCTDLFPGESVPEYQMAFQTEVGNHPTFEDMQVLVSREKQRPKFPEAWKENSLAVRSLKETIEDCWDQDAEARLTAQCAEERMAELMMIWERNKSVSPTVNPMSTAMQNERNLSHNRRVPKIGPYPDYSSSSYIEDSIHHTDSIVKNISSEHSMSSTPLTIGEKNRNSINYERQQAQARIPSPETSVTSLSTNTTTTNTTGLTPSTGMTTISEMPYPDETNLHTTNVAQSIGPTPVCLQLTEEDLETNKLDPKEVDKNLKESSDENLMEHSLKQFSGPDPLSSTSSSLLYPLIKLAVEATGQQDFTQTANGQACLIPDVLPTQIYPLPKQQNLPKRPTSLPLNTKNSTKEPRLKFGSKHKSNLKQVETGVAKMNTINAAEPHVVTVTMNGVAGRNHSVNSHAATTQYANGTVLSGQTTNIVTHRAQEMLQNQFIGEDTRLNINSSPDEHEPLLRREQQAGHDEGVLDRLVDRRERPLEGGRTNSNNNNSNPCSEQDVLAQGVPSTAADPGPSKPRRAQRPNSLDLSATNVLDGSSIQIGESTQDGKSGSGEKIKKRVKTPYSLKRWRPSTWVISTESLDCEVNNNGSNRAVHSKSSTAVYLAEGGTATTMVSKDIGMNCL
T3 sequence (P45984 whole entry): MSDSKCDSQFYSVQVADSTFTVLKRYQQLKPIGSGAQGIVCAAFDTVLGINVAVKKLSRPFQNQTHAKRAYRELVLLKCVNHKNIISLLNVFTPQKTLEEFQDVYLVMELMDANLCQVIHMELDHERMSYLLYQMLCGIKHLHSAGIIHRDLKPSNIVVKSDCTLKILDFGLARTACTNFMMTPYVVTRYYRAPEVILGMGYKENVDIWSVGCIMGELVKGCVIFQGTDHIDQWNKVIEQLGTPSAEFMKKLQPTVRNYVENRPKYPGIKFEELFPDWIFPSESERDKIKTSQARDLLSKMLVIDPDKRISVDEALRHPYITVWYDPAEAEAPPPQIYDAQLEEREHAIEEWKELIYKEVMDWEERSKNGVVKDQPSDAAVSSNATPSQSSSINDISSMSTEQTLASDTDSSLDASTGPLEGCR
T7 sequence (P00533 with tags, fused parts or gaps DEL747-752/P753S limits assumed): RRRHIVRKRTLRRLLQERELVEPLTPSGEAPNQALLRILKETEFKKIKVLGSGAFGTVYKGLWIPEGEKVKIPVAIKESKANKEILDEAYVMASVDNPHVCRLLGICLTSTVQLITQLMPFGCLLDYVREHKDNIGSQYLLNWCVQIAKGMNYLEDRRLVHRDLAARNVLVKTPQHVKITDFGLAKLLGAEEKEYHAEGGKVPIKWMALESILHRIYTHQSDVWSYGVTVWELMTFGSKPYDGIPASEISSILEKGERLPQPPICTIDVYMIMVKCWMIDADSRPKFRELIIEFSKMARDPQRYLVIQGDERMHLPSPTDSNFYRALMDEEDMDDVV

Compound: COc1cc(C(=O)NCC(=O)Nc2ccc3c(/C=C/c4ccccn4)n[nH]c3c2)cc(OC)c1OC [CHMFL-KIT-031]
- KINOMEScan profiling value [1]: 100
- S score (1) [2]: 0.01
- KINOMEScan profiling value [3]: 97
- KINOMEScan profiling value [4]: 100
- KINOMEScan profiling value [5]: 92
- phosphorylation of downstream mediators AKT, S6, ERK, p70S6K and STAT3 [6]: potently inhibited
- KINOMEScan profiling value [7]: 89
- KINOMEScan profiling value [8]: 92
- EC50 [9, 26]: 5.6 µM
- EC50 [9, 27]: 0.863 µM
- EC50 [9, 28]: 5.4 µM
- KINOMEScan profiling value [10]: 87
- KINOMEScan profiling value [11]: 100
- KINOMEScan profiling value [12]: 64
- EC50 ([13]; read-out: EC50 pY703 auto-phosphorylation): 1.9 µM
- EC50 ([13]; read-out: EC50 pY719 auto-phosphorylation): 8.2 µM
- EC50 ([13]; read-out: EC50 pY823 auto-phosphorylation): 6.9 µM
- EC50 [14, 26]: > 10 µM
- EC50 [14, 27]: > 10 µM
- EC50 [14, 28]: 4.59 µM
- KINOMEScan profiling value [15]: 100
- KINOMEScan profiling value [16]: 82
- EC50 [17]: > 10 µM
- EC50 ([17]; read-out: EC50 pY719 auto-phosphorylation, KIT A829P transformed BaF3 cells, 2h): > 10 µM
- EC50 ([17]; read-out: EC50 pY823 auto-phosphorylation, KIT A829P transformed BaF3 cells, 2h): > 10 µM
- KINOMEScan profiling value [18]: 100
- KINOMEScan profiling value [19]: 100
- KINOMEScan profiling value [20]: 87
- KINOMEScan profiling value [21]: 99
- KINOMEScan profiling value [22]: 100
- KINOMEScan profiling value [23]: 91
- KINOMEScan profiling value [24]: 100
- KINOMEScan profiling value [25]: 100
